From patent US11628172B2, “Methods of treating chronic lymphocytic leukemia using 2-(2,6-dioxopiperidin-3-yl)-4-((2-fluoro-4-((3-morpholinoazetidin-1-yl)methyl)benzyl)amino)isoindoline-1,3-dione” (Celgene Corporation, priority 2019, dated 2023)
Read-outs that look alike come from different tables or passages of the source.

How the values were obtained:
I83-E95 CLL cell line = assay: Cell proliferation and viability assay (384-well flow cytometry, Annexin V/DRAQ7), I83-E95; format: cell-based; conditions: 120 hours
Procedure: (§1) The following are examples of cell-based assays that can be used to determine the anti-proliferative activity and apoptotic effect of compounds described herein using exemplary CLL cell lines (Table 3). The in vitro growth inhibitory activity of Compound 1 described herein was evaluated using a 384-well flow cytometry assay.
(§2) The cell lines were plated under the conditions shown in Table 3 in 384-well flat bottom plates and incubated with increasing concentrations of compound ranging from 0.00015 to 10 μM or dimethyl sulfoxide (DMSO) control. The final concentration of DMSO was 0.1% (v/v). Following the addition of Compound 1 or DMSO and incubation for 120 hours, cell number and cell death were analyzed by flow cytometry (Attune®, Thermo Fisher) using Annexin V and the live-cell impermeant DNA dye, DRAQ7. […]
(§3) Flow cytometry data analysis was then performed using the Flow Jo_v10 software to determine the number of viable cells (Annexin V and DRAQ7 double negative staining cells) and percentage of apoptotic cells (Annexin V positive cells) for each condition. […] The IC50 (50% inhibitory concentration) and Emax (maximum efficacy achieved) values were then calculated by performing nonlinear regression curve fitting using log (inhibitor) vs. normalized response—variable slope analysis on GraphPad Prism 7.03. […]

Mec1 CLL cell line = assay: Cell proliferation and viability assay (384-well flow cytometry, Annexin V/DRAQ7), Mec1; format: cell-based; conditions: 120 hours
Procedure: as §1, §2, §3

WA-OSEL CLL cell line = assay: Cell proliferation and viability assay (384-well flow cytometry, Annexin V/DRAQ7), WA-OSEL; format: cell-based; conditions: 120 hours
Procedure: as §1, §2, §3

WA-C3-CD5+ CLL cell line = assay: Cell proliferation and viability assay (384-well flow cytometry, Annexin V/DRAQ7), WA-C3-CD5+; format: cell-based; conditions: 120 hours
Procedure: as §1, §2, §3

[1] = test system: primary CLL cells from patient-derived blood; assay: Cell proliferation and viability assay for B-cell CLL patient cells (ex vivo co-culture with CD154-expressing fibroblasts); format: cell-based, human; parameters: AUC: unit not given here; conditions: for Emax / IC50: Homo sapiens, CLL cell; for Emax: read-out: Emax (percentage of tumor cells remaining); for AUC: viable cell counts
Procedure: The following are examples of cell-based assays that can be used to determine the anti-proliferative activity and apoptosis effect of compounds described herein using exemplary CLL patient cells. The effect of Compound 1 on the viability and apoptosis of CLL B cells was assessed utilizing an ex vivo model.
CLL is characterized by accumulation of clonal CD5^+CD19^+ lymphocytes resistant to apoptosis. The effect of Compound 1 on the viability and apoptosis of CLL B cells was assessed utilizing an ex vivo model where primary CLL cells from patient-derived blood were stimulated with 10% fetal bovine serum (FBS), 5 ng/mL recombinant human interleukin-4 (rh IL-4), 10 ng/mL recombinant human interleukin-10 (rh IL-10) and co-cultured with fibroblast expressing surface CD154 (CD40L). The percentage of cells staining with Annexin V and/or DRAQ-7 was measured by flow cytometry assay after 3, 6 or 10 days of incubation with vehicle control or with increasing concentrations of Compound 1 ranging from 0.001 to 1 μM. Peripheral blood mononuclear cells (PBMCs) from CLL patients (Table 5) containing 70%-95% of CD5^+CD19^+ tumor cells were cultured on a monolayer of CD154-expressing fibroblasts in 24-well plates at a density of patient cells of 0.8×10^6 cells/well in RPMI 1640 medium supplemented with 10% FBS, 5 ng/mL rh IL-4 and 10 ng/mL rh IL-10 and were treated with vehicle control (0.1% DMSO) or increasing concentrations of Compound 1 ranging from 0.001 to 1 μM. After treatment, flow cytometric analysis was used to determine the number of cells that were viable or apoptotic.
After 3, 6 or 10 days of compound treatment, cells were incubated with Annexin V to capture the externalization of phosphatidylserine as a result of disturbed lipid asymmetry in the plasma membrane of cells, a well-characterized event in apoptosis, and the vital far-red fluorescent DNA dye DRAQ-7, that only stains the nuclei of dead and permeabilized cells, and analyzed by flow cytometry (Attune®, Thermo Fisher). Analysis was then performed to determine the percentage of viable live cells (Annexin V and DRAQ-7 double negative staining cells) using FlowJo_V10 and graphed with GraphPad Prism 7.03 software. The live cell count for every condition was normalized to the DMSO control (considered as 100% viable cells) to calculate the percentage of viable cells remaining after treatment. The IC50 (50% inhibitory concentration) and Emax (maximum efficacy eliminating tumor cells achieved) values were then calculated by performing nonlinear regression curve fitting using log(inhibitor) vs. normalized response—variable slope analysis on GraphPad Prism 7.03. Area under the curve (AUC) value of the viable cell counts over time was calculated by performing area under curve analysis on GraphPad Prism 7.03 (Table 6).

CI CLL cell line = assay: Cell proliferation and viability assay (384-well flow cytometry, Annexin V/DRAQ7), CI; format: cell-based; conditions: 120 hours
Procedure: as §1, §2, §3

HG3 CLL cell line = assay: Cell proliferation and viability assay (384-well flow cytometry, Annexin V/DRAQ7), HG3; format: cell-based; conditions: 120 hours
Procedure: as §1, §2, §3

EHEB CLL cell line = assay: Cell proliferation and viability assay (384-well flow cytometry, Annexin V/DRAQ7), EHEB; format: cell-based; conditions: 120 hours
Procedure: as §1, §2, §3

[2] = Pt10, ex vivo CLL patient cells

## O=C1CC[C@H](N2C(=O)c3cccc(NCc4ccc(CN5CC(N6CCOCC6)C5)cc4F)c3C2=O)C(=O)N1 [Compound 1, (S)-2-(2,6-dioxopiperidin-3-yl)-4-((2-fluoro-4-((3-morpholinoazetidin-1-yl)methyl)benzyl)amino)isoindoline-1,3-dione]
I83-E95 CLL cell line
  % Viable Cells Emax (percentage of tumor cells remaining): 21.6%
Mec1 CLL cell line
  % Viable Cells Emax (percentage of tumor cells remaining): 83.45%
WA-OSEL CLL cell line
  % Viable Cells Emax (percentage of tumor cells remaining): 54.42%
WA-C3-CD5+ CLL cell line
  % Viable Cells Emax (percentage of tumor cells remaining): 44.2%
[1]; Pt1, ex vivo CLL patient cells
  Emax: 4.62%
  AUC: 32.79
[1]; Pt2, ex vivo CLL patient cells, 0.001 to 1 μM, viable cells normalized to DMSO, read-out: IC50
  IC50: 1.05 nM
[1]; Pt2, ex vivo CLL patient cells
  Emax: 30.6%
  AUC: 181.6
[1]; Pt3, ex vivo CLL patient cells, 0.001 to 1 μM, viable cells normalized to DMSO, read-out: IC50
  IC50: 0.723 nM
[1]; Pt3, ex vivo CLL patient cells
  Emax: 13%
  AUC: 106.1
[1]; Pt4, ex vivo CLL patient cells
  Emax: 6.5%
  AUC: 44.01
[1]; Pt5, ex vivo CLL patient cells, 0.001 to 1 μM, viable cells normalized to DMSO, read-out: IC50
  IC50: 0.305 nM
[1]; Pt5, ex vivo CLL patient cells
  Emax: 22.8%
  AUC: 139.6
[1]; Pt6, ex vivo CLL patient cells, 0.001 to 1 μM, viable cells normalized to DMSO, read-out: IC50
  IC50: 2.75 nM
[1]; Pt6, ex vivo CLL patient cells
  Emax: 27.4%
  AUC: 154.9
[1]; Pt7, ex vivo CLL patient cells, 0.001 to 1 μM, viable cells normalized to DMSO, read-out: IC50
  IC50: 0.036 nM
[1]; Pt7, ex vivo CLL patient cells
  Emax: 5.87%
  AUC: 44.86
[1]; Pt8, ex vivo CLL patient cells, 0.001 to 1 μM, viable cells normalized to DMSO, read-out: IC50
  IC50: 0.209 nM
[1]; Pt8, ex vivo CLL patient cells
  Emax: 4.82%
  AUC: 75.03
[1]; Pt9, ex vivo CLL patient cells, 0.001 to 1 μM, viable cells normalized to DMSO, read-out: IC50
  IC50: 0.0652 nM
[1]; Pt9, ex vivo CLL patient cells
  Emax: 4.14%
  AUC: 48.14
[1]; Pt10, ex vivo CLL patient cells, 0.001 to 1 μM, viable cells normalized to DMSO, read-out: IC50
  IC50: 0.129 nM
[1]; [2]
  Emax: 10.2%
  AUC: 57.87
[1]; all CLL patient samples evaluated, read-out: concentrations that led to 50% inhibition of growth (IC50)
  IC50: 0.1 to 3 nM
CI CLL cell line
  % Viable Cells Emax (percentage of tumor cells remaining): 53.58%
HG3 CLL cell line
  % Viable Cells Emax (percentage of tumor cells remaining): 59.58%
EHEB CLL cell line
  % Viable Cells Emax (percentage of tumor cells remaining): 28.68%
